Experimental data as given in article PMC9139161, “Phenolics from Chrozophora oblongifolia Aerial Parts as Inhibitors of α-Glucosidases and Advanced Glycation End Products: In-Vitro Assessment, Molecular Docking and Dynamics Studies” (Biology, 2022).
Values belong to the compound of their own block, whether it stands above or below them.

Experiments:
[1] = system: advanced glycation end products (AGEs) formation, BSA-fructose model; assay: AGEs formation inhibition, BSA-fructose assay; assay type: biochemical; conditions: AGEs fluorescence, 72 h, 37 °C; read-out: BSA-Fructose Model IC50 (Mean ± SE)
Protocol: (§1) The isolated compounds were prepared at final concentrations of 500 µM in DMSO in the BSA-fructose assay, and 1000 µM in all other AGEs assays. Compounds that exceeded 50% inhibition at this concentration were serially diluted to determine their IC50. All tests were conducted using quercetin (positive control).
According to the previous report, the inhibition test for AGE formation was assessed using the BSA-fructose model. Briefly, BSA (50 mg/mL) and fructose (1.25 M) (in 200 mM phosphate buffer, pH 7.4, with 0.02% sodium azide) were incubated with Sample/blank in the dark for 72 h at 37 °C, (1:1:1 by volume). On a microplate reader (Fluostar Omega BMG Labtech, Ortenberg, Germany), fluorescent AGEs were detected using excitation and emission wavelengths of 355 nm and 460 nm, respectively. Triplicates of all experiments were performed, and the percentage of AGEs inhibition was calculated.

[2] = system: advanced glycation end products (AGEs) formation, arginine-methylglyoxal model; assay: AGEs formation inhibition, arginine-methylglyoxal assay; assay type: biochemical; conditions: AGEs fluorescence, 72 h, 37 °C; read-out: Arginine-Methylglyoxal Model IC50 (Mean ± SE)
Protocol: as §1
The determination of the inhibitory effect of the isolated compounds on the formation of AGEs in the arginine methylglyoxal model was used as described previously with slight modification. Briefly, in black 96-microwell plates, a sample was incubated for 72 h at 37 °C in the dark with methylglyoxal (53.3 mM, in distilled water) and 106.6 mM arginine (in 200 mM phosphate buffer, pH 7.4, with 0.02% sodium azide), (1:1:1 v/v/v). On a microplate reader (Fluostar Omega/BMG Labtech/Germany), fluorescent AGEs were detected using excitation and emission wavelengths of 355 nm and 460 nm, respectively. Triplicates of all experiments were performed.

[3] = system: advanced glycation end products (AGEs) formation, BSA-methylglyoxal model; assay: AGEs formation inhibition, BSA-methylglyoxal assay; assay type: biochemical; conditions: AGEs fluorescence, 72 h, 37 °C; read-out: BSA-Methylglyoxal Model IC50 (Mean ± SE)
Protocol: as §1
AGEs inhibitory activity of the isolated compounds was determined according to the reported procedures with slight modification. Briefly, in black 96-microwell plates, samples were incubated for 72 h at 37 °C in the dark with bovine serum albumin (BSA, 50 mg/mL) (in 200 mM phosphate buffer, pH 7.4, with 0.02% sodium azide) and methyl-glyoxal (53.3 mM, in distilled water), (1:1:1 v/v/v). On a microplate reader (Fluostar Omega/BMG Labtech/Germany), fluorescent AGEs were detected using excitation and emission wavelengths of 355 nm and 460 nm, respectively. Triplicates of all experiments were performed.

ABTS assay = conditions: concentration-response curve
Protocol: DMSO was used for the preparation of 0.5 mg/mL concentrations of isolated compounds, meanwhile, the positive control (ascorbic acid) was used to prepare a stock solution of 1000 µM in water; from which seven concentrations were prepared including 7.812, 15.625, 31.25, 62.5, 125, 250 and 500 µM to construct the concentration-response curve (Supplementary Data Figure S2). The activity of the tested compounds to scavenge the free radicals of ABTS (2,2′-azino-bis (3-ethylbenzothiazoline-6-sulfonic acid)) was assessed according to the methodology reported previously with slight modifications.
Five milliliters of aqueous solution (7 mM) of ABTS was mixed with 88 µL potassium persulfate (140 mM) and the mixture was kept in the dark for 16 h to produce ABTS radical cation (ABTS^•+). Then methanol was added to the reaction mixture to dilute the formed ABTS^•+ solution to an absorbance of 0.700 (1:50) at 690 nm.
Ten microliters of the tested compound were incubated with 190 μL of ABTS^•+ solution in a 96-well plate for thirty minutes in the dark and the absorbance was measured later using a microplate reader (TECAN, Männedorf, Switzerland) at 690 nm. Data are represented as means (n = 3) ± SD and the antioxidant effect of the tested compounds was calculated as µM Ascorbic acid equivalents by substitution in the linear regression equation (Supplementary Figure S2).

DPPH assay = conditions: read-out: DPPH assay IC50 (Mean ± SE)
Protocol: Isolated compounds were prepared in final concentrations of 1000 µM in DMSO. Compounds that exceeded 50% inhibition at this concentration were serially diluted to determine their IC50. Ascorbic acid was used as a positive control, prepared in a concentration of 100 µM in water from which six concentrations were prepared to calculate its IC50. The method is based on the reduction of free radical of 2,2-diphenyl-1-picrylhydrazyl (DPPH). Briefly, in a 96-well plate, 20 μL of the isolated compound was incubated for 20 min in the absence of light with 180 μL of DPPH reagent (100 μM). The reduction of intensity in the color of DPPH was assessed on a microplate reader (TECAN, Männedorf, Switzerland) at 540 nm (Supplementary Table S2).

[4] = Metal chelation assay (ferrozine); conditions: concentration-response curve
Protocol: Isolated compounds were dissolved in DMSO to prepare a concentration of 0.5 mg/mL, meanwhile, the positive control (EDTA) was used to prepare a stock solution of 100 µM in water; from which six concentrations were prepared including 5, 10, 20, 40, 50 and 80 µM to construct the dose-response curve. The assay was carried out as previously reported, with minor modifications. Briefly, in 96 wells plate (n = 6) 20 µL of the freshly prepared ferrous sulfate (0.3 mM) was mixed with 50 µL of the tested compound and incubated with 30 µL of ferrozine (0.8 mM) for 10 min at room temperature. Finally, reduction in color intensity was assessed at 540 nm using a microplate reader (Tecan, San Jose, CA, USA). Data are represented as means (n = 3) ± SD and the antioxidant effect of the extracts was calculated as µM EDTA equivalents by substitution in the linear regression equation (Supplementary Figure S4).

IC50 [1]: 62 µM | IC50 [2]: 536 µM | IC50 [3]: 941 µM
Compound: O=c1c(O)c(-c2ccc(O)c(O)c2)oc2cc(O)cc(O)c12 [Quercetin, quercetin, reference compound]

IC50 (DPPH assay): 28 µM
Compound: O=C1O[C@H]([C@@H](O)CO)C(O)=C1O [ascorbic acid, Ascorbic acid]
ABTS % inhibition (ABTS assay; 7.8125 µM): 2.8930% | ABTS % inhibition (ABTS assay; 15.625 µM): 3.7803% | ABTS % inhibition (ABTS assay; 31.25 µM): 5.5156% | ABTS % inhibition (ABTS assay; 62.5 µM): 9.7291% | ABTS % inhibition (ABTS assay; 125 µM): 16.88% | ABTS % inhibition (ABTS assay; 250 µM): 33.5451% | ABTS % inhibition (ABTS assay; 500 µM): 62.86%

Compound: O=C(O)CN(CCN(CC(=O)O)CC(=O)O)CC(=O)O [EDTA, reference compound]
Metal chelation % inhibition ([4]; 5 µM): 8.429% | Metal chelation % inhibition ([4]; 10 µM): 13.464% | Metal chelation % inhibition ([4]; 20 µM): 19.624% | Metal chelation % inhibition ([4]; 40 µM): 41.866% | Metal chelation % inhibition ([4]; 50 µM): 48.303% | Metal chelation % inhibition ([4]; 80 µM): 72.307%
